According to patent publication US4866068A, “Novel HMG-CoA reductase inhibitors” (Merck & Co., Inc., priority 1988, dated 1989):

Tested on: HMG-CoA reductase
Experiment: in vitro HMG-CoA reductase inhibition, relative potency versus compactin
Format: biochemical
Conditions: compactin (mevastatin) assigned a value of 100; IC50 of test compound compared with that of compactin determined simultaneously
Procedure: The intrinsic HMG-CoA reductase inhibition activity of the claimed compounds is measured in the in vitro protocol published in J. Med. Chem., 28, p. 347-358 (1985).
For estimation of relative inhibitory potencies, compactin (i.e., mevastatin) was assigned a value of 100 and the IC50 value of the test compound was compared with that of compactin determined simultaneously in the published in vitro protocol.

relative potency (intrinsic HMG-CoA reductase inhibitory activity) | Structure (SMILES)
112 | C[C@H]1C=C2C=C[C@H](C)[C@H](CC[C@@H]3C[C@@H](O)CC(=O)O3)[C@H]2[C@@H](OC(=O)C(C)(C)Sc2ccncc2)C1 [Example 1, 6R-[2-[8(S)[2-methyl-2-(4-pyridinylthio)propionyloxy]-2(S), 6(R)-dimethyl-1,2,6,7,8,8a(R)-hexahydronaphthyl-1(S)]ethyl]-4(R)-hydroxy-3,4,5,6-tetrahydro-2H-pyran-2-one]
100 | C[C@H]1C=C2C=C[C@H](C)[C@H](CC[C@@H]3C[C@@H](O)CC(=O)O3)[C@H]2[C@@H](OC(=O)C(C)(C)Sc2nc3ccccc3s2)C1 [Example 2]
